This assay addresses SRPK1 (Homo sapiens). Nature of the assay: In vitro inhibition of SR protein kinase 1 by compound dissolved in 100% DMSO using 5''-[gamma-33P]-triphosphate.

What is called IC50 is the concentration needed to halve the response being measured.

On to `COC(=O)Cc1csc(-c2nc3cc4ccccc4cc3nc2-c2cc(CC(=O)OC)cs2)c1` [{5-[3-(4-Methoxycarbonylmethyl-thiophen-2-yl)-benzo[g]quinoxalin-2-yl]-thiophen-3-yl}-acetic acid methyl ester], for which the 50% inhibitory concentration (IC50) was 11800 nM.

In turn, `c1csc(-c2nc3cc4c(cc3nc2-c2cccs2)OCCO4)c1` [6,7-Di-thiophen-2-yl-2,3-dihydro-1,4-dioxa-5,8-diaza-anthracene] had an IC50 of 23400 nM.

In the case of `O=C(O)c1ccc2cc3nc(-c4cccs4)c(-c4cccs4)nc3cc2c1` [2,3-Di-thiophen-2-yl-benzo[g]quinoxaline-7-carboxylic acid], the half-maximal inhibitory concentration (IC50) worked out at 40 nM.

Consider `COc1cc2nc3nc(-c4cccs4)c(-c4cccs4)nc3nc2cc1OC` [7,8-Dimethoxy-2,3-di-thiophen-2-yl-pyrazino[2,3-b]quinoxaline], for which the IC50 was determined as 1140 nM.

As to `O=C(O)C1COc2cc3nc(-c4cccs4)c(-c4cccs4)nc3cc2O1` (stereo unspecified) [6,7-Di-thiophen-2-yl-2,3-dihydro-1,4-dioxa-5,8-diaza-anthracene-2-carboxylic acid], the midpoint of inhibition, the IC50, lay at 950 nM.

As for `Oc1cc2nc(-c3cccs3)c(-c3cccs3)nc2cc1O` [2,3-Di-thiophen-2-yl-quinoxaline-6,7-diol], the IC50 is 9610 nM. Compared with the last compound, the IC50 is about 10-fold higher.

`c1csc(-c2nc3cc4ccccc4cc3nc2-c2cccs2)c1` [2,3-Di-thiophen-2-yl-benzo[g]quinoxaline] yielded an IC50 of 1360 nM.

In turn, `COC(=O)CCc1ccc(-c2nc3cc4ccccc4cc3nc2-c2ccc(CCC(=O)OC)s2)s1` [3-(5-{3-[5-(2-Methoxycarbonyl-ethyl)-thiophen-2-yl]-benzo[g]quinoxalin-2-yl}-thiophen-2-yl)-propionic acid methyl ester] returned an IC50 of 6130 nM. Compared with the last compound, the IC50 is about 4.5-fold higher.

The compound `O=C(O)CCc1ccc(-c2nc3cc4ccccc4cc3nc2-c2ccc(CCC(=O)O)s2)s1` [3-(5-{3-[5-(2-Carboxy-ethyl)-thiophen-2-yl]-benzo[g]quinoxalin-2-yl}-thiophen-2-yl)-propionic acid] came in with an IC50 of 870 nM.

In turn, `O=C(O)CCCc1ccc(-c2nc3cc4ccccc4cc3nc2-c2ccc(CCCC(=O)O)s2)s1` [4-(5-{3-[5-(3-Carboxy-propyl)-thiophen-2-yl]-benzo[g]quinoxalin-2-yl}-thiophen-2-yl)-butyric acid] yielded an IC50 of 820 nM. This IC50 and that of the compound before are within 1.5-fold of each other.

In turn, `COc1cc2nc(-c3cccs3)c(-c3cccs3)nc2cc1OC` [6,7-Dimethoxy-2,3-di-thiophen-2-yl-quinoxaline] displayed an IC50 of 16300 nM.

The values above are taken from BindingDB's records for doi:10.1016/j.bmcl.2005.04.064 (Semmelweis University, 2005).
